Results on twelve molecules are retold here after patent US20190225650A1, “PEPTIDOMIMETIC MACROCYCLES AND USE THEREOF IN REGULATING HIF1ALPHA” (AILERON THERAPEUTICS, INC., priority 2013, published 2019).

Bridge positions count the residues as written; N and C are the ends. Square brackets hold non-standard residues; d marks the D form. Peptide text beside a SMILES is read from it. R8 = C=CCCCCCC[C@@](C)(N)C(=O)O; S5 = C=CCCC[C@](C)(N)C(=O)O; Nle = CCCC[C@H](N)C(=O)O

The target of assay [1] is T1, flag-tagged HIF1α (AA 786-826) / His6-tagged p300 (AA 323-423) complex (Homo sapiens, UniProt Q09472).
T1 construct: His6-tagged p300 (AA 323-423); made in house; host or cells: E. coli (pETDuet vector)
Description: HIF1α p300 displacement assay (TR FRET, +CHAPS). The assay is classed as binding. The settings on record: read-out: IC50 (nM) (HIF1α_p300 Displacement + CHAPS). The method, boiled down:
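In this TR-FRET displacement format, peptides compete HIF1α C-terminal transactivation domain off p300-CH. They were preincubated 1 h at room temperature with 300 nM complex in HEPES pH 7.4/NaCl buffer with 7.5 mM CHAPS and 1 mM DTT. Anti-His-D2 (4 nM) and anti-Flag-K (0.5 μM) followed for 2 h, and a one-site fit of the fluorescence ratio gave IC50.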

The next assay has as its system HRE-bla ME-180 cells. Description: Reporter gene assay (HRE-bla ME-180 HIF reporter, GeneBLAzer). It is filed as cell-based, human. The settings on record: for EC50: 24 hour normoxia. The method, boiled down: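 A FRET β-lactamase readout of HIF transcription was used. After compound treatment in 0.3% DMSO/media under normoxic conditions, 20 μl of 6× LiveBLAzer-FRET B/G (CCF4-AM) substrate was added. Plates sat 3 hr at room temperature in the dark and were read at 409 Ex/460Em and 409Ex/530Em on a Synergy 2. Inhibition was compared against DMSO vehicle controls, with chetomin as positive control.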

Consider `CCCC[C@H](NC(=O)[C@H](CCCNC(=N)N)NC(=O)[C@@H](NC(=O)[C@@H](NC(=O)[C@H](CC(C)C)NC(=O)[C@]1(C)CCCC=CCCC[C@](C)(NC(=O)[C@H](CCC(=O)O)NC(=O)[C@H](CC(=O)O)NC(=O)[C@@H](NC(=O)[C@H](Cc2ccccc2)NC(C)=O)[C@@H](C)CC)C(=O)N[C@@H](C(C)C)C(=O)N[C@@H](CC(C)C)C(=O)N[C@@H](CCCC)C(=O)N1)C(C)C)[C@@H](C)CC)C(=O)N[C@@H](C)C(=O)N[C@@H](CC(C)C)C(N)=O` [SP-157] (Ac-FIDE[S5]VL[Nle][S5]LVIR[Nle]AL-NH2; staple 5-9), for which the concentration for half-maximal inhibition (IC50) in assay [1] is more than 700 nM. In the assay on HRE-bla ME-180 cells, the “18 h Avg % max inhibition at top conc (HIF Rptr-24 hrs normoxia) (μM)” value (“18 h Avg % max inhibition at top conc” below) is reported as “+ (<10: +)” and the concentration for a half-maximal effect (EC50) was more than 30 µM.

Consider `CCCC[C@H](NC(=O)[C@H](C)NC(=O)[C@@H](NC(=O)[C@@H](NC(=O)[C@H](CC(C)C)NC(=O)[C@]1(C)CCCC=CCCC[C@](C)(NC(=O)[C@H](CCC(=O)O)NC(=O)[C@H](CC(=O)O)NC(=O)[C@@H](NC(=O)[C@H](Cc2ccccc2)NC(C)=O)[C@@H](C)CC)C(=O)N[C@@H](C(C)C)C(=O)N[C@@H](CC(C)C)C(=O)N[C@@H](CCCC)C(=O)N1)C(C)C)[C@@H](C)CC)C(=O)N[C@@H](C)C(=O)N[C@@H](CC(C)C)C(N)=O` [SP-122] (Ac-FIDE[S5]VL[Nle][S5]LVIA[Nle]AL-NH2; staple 5-9), for which the half-inhibitory concentration (IC50) in assay [1] lay in the range of 200 to 400 nM. Moreover, in the assay on HRE-bla ME-180 cells, the “18 h Avg % max inhibition at top conc” value was “++ (≤10 but <25: ++)” and the half-maximal effective concentration (EC50) was more than 30 µM.

In the case of `CC[C@H](C)[C@H](NC(=O)[C@H](Cc1ccccc1)NC(C)=O)C(=O)N[C@@H](CC(N)=O)C(=O)N[C@@H](CCC(=O)O)C(=O)N[C@@H](CCC(=O)O)C(=O)N[C@H](C(=O)N[C@@H](CC(C)C)C(=O)N[C@@H](CCSC)C(=O)N[C@@]1(C)CCCC=CCCC[C@@](C)(C(=O)N[C@@H](CCSC)C(=O)N[C@@H](C)C(=O)N[C@@H](CC(C)C)C(N)=O)NC(=O)[C@H]([C@@H](C)CC)NC(=O)[C@H](C(C)C)NC(=O)[C@H](CC(C)C)NC1=O)C(C)C` [SP-232] (Ac-FINEEVLM[S5]LVI[S5]MAL-NH2; staple 9-13), in assay [1], the IC50 was 400 to 700 nM. For the same molecule, in the assay with HRE-bla ME-180 cells, the “18 h Avg % max inhibition at top conc” value is on record as “++ (≤10 but <25: ++)” and the half-maximal effective concentration (EC50) was more than 30 µM.

`CCCC[C@H](NC(=O)[C@H](CCC(=O)O)NC(=O)[C@@H](NC(=O)[C@@H](NC(=O)[C@H](CC(C)C)NC(=O)[C@]1(C)CCCC=CCCC[C@](C)(NC(=O)[C@H](CCC(=O)O)NC(=O)[C@H](CC(=O)O)NC(=O)[C@@H](NC(=O)[C@H](Cc2ccccc2)NC(C)=O)[C@@H](C)CC)C(=O)N[C@@H](C(C)C)C(=O)N[C@@H](CC(C)C)C(=O)N[C@@H](CCCC)C(=O)N1)C(C)C)[C@@H](C)CC)C(=O)NCC(=O)N[C@@H](CC(C)C)C(=O)N[C@@H](CC(=O)O)C(=O)N[C@@H](CCCNC(=N)N)C(=O)N[C@H](C(=O)N[C@@H](CCCCN)C(=O)N[C@@H](CCC(=O)O)C(=O)N[C@@H](CC(C)C)C(=O)N1CCC[C@H]1C(=O)N[C@@H](CCC(=O)O)C(=O)N[C@@H](CC(C)C)C(=O)N[C@@H](Cc1c[nH]c2ccccc12)C(=O)N[C@@H](CC(C)C)C(N)=O)[C@@H](C)CC` [SP-105] (Ac-FIDE[S5]VL[Nle][S5]LVIE[Nle]GLDRIKELPELWL-NH2; staple 5-9): the IC50 in assay [1] is not above 200 nM. Besides, the EC50 with HRE-bla ME-180 cells is more than 30 µM.

For the molecule `CCCC[C@@H]1NC(=O)[C@H](CC(C)C)NC(=O)[C@H]([C@@H](C)O)NC(=O)[C@@](C)(NC(=O)[C@H](C)NC(=O)[C@H](CC(=O)O)NC(=O)[C@@H](NC(=O)[C@H](Cc2ccccc2)NC(C)=O)[C@@H](C)CC)CCCC=CCCCC2(CCCC=CCCC[C@](C)(C(=O)N[C@@H](CCCC)C(=O)N[C@@H](C)C(=O)N[C@@H](CC(C)C)C(N)=O)NC(=O)[C@H]([C@@H](C)CC)NC(=O)[C@H](C(C)C)NC(=O)[C@H](CO)NC2=O)NC1=O` (stereo partly shown) [SP-214], in assay [1], the IC50 is more than 700 nM. In the assay with HRE-bla ME-180 cells, the “18 h Avg % max inhibition at top conc” value is “+++ (≤25 but <50: +++)” and the EC50 is more than 30 µM.

As for `CCCC[C@H](NC(=O)[C@H](C)NC(=O)[C@]1(C)CCCC=CCCCCCC[C@@](C)(NC(=O)[C@H](CCC(=O)O)NC(=O)[C@H](C)NC(=O)[C@@H](NC(=O)[C@H](Cc2ccccc2)NC(C)=O)[C@@H](C)CC)C(=O)N[C@@H](C(C)C)C(=O)N[C@@H](CC(C)C)C(=O)N[C@@H](CCCC)C(=O)N[C@@H](CO)C(=O)N[C@@H](CC(C)C)C(=O)N[C@@H](C(C)C)C(=O)N1)C(=O)N[C@@H](C)C(=O)N[C@@H](CC(C)C)C(=O)N[C@@H](CC(=O)O)C(=O)N[C@@H](C)C(=O)N[C@H](C(N)=O)[C@@H](C)CC` [SP-193] (Ac-FIAE[R8]VL[Nle]SLV[S5]A[Nle]ALDAI-NH2; staple 5-12), the half-maximal inhibitory concentration (IC50) in assay [1] fell in the range of 400 to 700 nM. For the same molecule, in the assay with HRE-bla ME-180 cells, the “18 h Avg % max inhibition at top conc” value is “+ (<10: +)” and the concentration giving a half-maximal response (EC50) was more than 30 µM.

Take `CCCC[C@@H]1NC(=O)[C@H](CC(C)C)NC(=O)[C@H](CCCNC(=N)N)NC(=O)[C@@](C)(NC(=O)[C@H](CCC(=O)O)NC(=O)[C@H](CC(=O)O)NC(=O)[C@@H](NC(=O)[C@H](Cc2ccccc2)NC(C)=O)[C@@H](C)CC)CCCC=CCCCC2(CCCC=CCCC[C@](C)(C(=O)N[C@@H](CCCC)C(=O)N[C@@H](C)C(=O)N[C@@H](CC(C)C)C(N)=O)NC(=O)[C@H]([C@@H](C)CC)NC(=O)[C@H](C(C)C)NC(=O)[C@H](CC(C)C)NC2=O)NC1=O` (stereo partly shown) [SP-206]: the half-maximal inhibitory concentration (IC50) in assay [1] is more than 700 nM. In the assay with HRE-bla ME-180 cells, the “18 h Avg % max inhibition at top conc” value was “+ (<10: +)” and the concentration for a half-maximal effect (EC50) is more than 30 µM.

As to `CC[C@H](C)[C@H](NC(=O)[C@H](Cc1ccccc1)NC(C)=O)C(=O)N[C@@H](CC(=O)O)C(=O)N[C@@H](CCC(=O)O)C(=O)N[C@@H](CO)C(=O)N[C@H](C(=O)N[C@@H](CC(C)C)C(=O)N[C@@H](CCSC)C(=O)N[C@@]1(C)CCCC=CCCC[C@@](C)(C(=O)N[C@@H](CCSC)C(=O)N[C@@H](C)C(=O)N[C@@H](CC(C)C)C(N)=O)NC(=O)[C@H]([C@@H](C)CC)NC(=O)[C@H](C(C)C)NC(=O)[C@H](CC(C)C)NC1=O)C(C)C` [SP-238] (Ac-FIDESVLM[S5]LVI[S5]MAL-NH2; staple 9-13), the half-maximal inhibitory concentration (IC50) in assay [1] fell in the range of 400 to 700 nM. In addition, in the assay with HRE-bla ME-180 cells, the “18 h Avg % max inhibition at top conc” value was “++ (≤10 but <25: ++)” and the EC50 was more than 30 µM.

As for `CC[C@H](C)[C@H](NC(=O)[C@H](Cc1ccccc1)NC(C)=O)C(=O)N[C@@H](CC(=O)O)C(=O)N[C@@H](CCC(N)=O)C(=O)N[C@@H](CCC(=O)O)C(=O)N[C@H](C(=O)N[C@@H](CC(C)C)C(=O)N[C@@H](CCSC)C(=O)N[C@@]1(C)CCCC=CCCC[C@@](C)(C(=O)N[C@@H](CCSC)C(=O)N[C@@H](C)C(=O)N[C@@H](CC(C)C)C(N)=O)NC(=O)[C@H]([C@@H](C)CC)NC(=O)[C@H](C(C)C)NC(=O)[C@H](CC(C)C)NC1=O)C(C)C` [SP-233] (Ac-FIDQEVLM[S5]LVI[S5]MAL-NH2; staple 9-13), in assay [1], the IC50 was 400 to 700 nM. Besides, in the assay on HRE-bla ME-180 cells, the “18 h Avg % max inhibition at top conc” value is reported as “+++ (≤25 but <50: +++)” and the EC50 lay within 15 to 30 µM.

For the molecule `CCCC[C@@H]1NC(=O)[C@H](CC(C)C)NC(=O)[C@H](C(C)C)NC(=O)[C@@](C)(NC(=O)[C@H](CCC(=O)O)NC(=O)[C@H](CC(=O)O)NC(=O)[C@@H](NC(=O)[C@H](Cc2ccccc2)NC(C)=O)[C@@H](C)CC)CCCC=CCCCC2(CCCC=CCCC[C@](C)(C(=O)N[C@@H](CCCC)C(=O)N[C@@H](C)C(=O)N[C@@H](CC(C)C)C(N)=O)NC(=O)[C@H]([C@@H](C)CC)NC(=O)[C@H](C(C)C)NC(=O)[C@H](CCCNC(=N)N)NC2=O)NC1=O` (stereo partly shown) [SP-209], the IC50 in assay [1] was more than 700 nM. In addition, in the assay on HRE-bla ME-180 cells, the “18 h Avg % max inhibition at top conc” value is “++ (≤10 but <25: ++)” and the EC50 is more than 30 µM.

Take `CCCC[C@H](NC(=O)[C@H](CCC(=O)O)NC(=O)[C@@H](NC(=O)[C@@H](NC(=O)[C@H](CC(C)C)NC(=O)[C@]1(C)CCCC=CCCC[C@](C)(NC(=O)[C@H](CCC(=O)O)NC(=O)[C@H](C)NC(=O)[C@@H](NC(=O)[C@H](Cc2ccccc2)NC(C)=O)[C@@H](C)CC)C(=O)N[C@@H](C(C)C)C(=O)N[C@@H](CC(C)C)C(=O)N[C@@H](CCCC)C(=O)N1)C(C)C)[C@@H](C)CC)C(=O)N[C@@H](C)C(=O)N[C@@H](CC(C)C)C(=O)N[C@@H](CC(=O)O)C(=O)N[C@@H](C)C(=O)N[C@H](C(N)=O)[C@@H](C)CC` [SP-120] (Ac-FIAE[S5]VL[Nle][S5]LVIE[Nle]ALDAI-NH2; staple 5-9): the 50% inhibitory concentration (IC50) in assay [1] is not above 200 nM. Besides, in the assay on HRE-bla ME-180 cells, the “18 h Avg % max inhibition at top conc” value is recorded as “+ (<10: +)” and the half-maximal effective concentration (EC50) is more than 30 µM.

Regarding `CCCC[C@H](NC(=O)[C@H](C)NC(=O)[C@@H](NC(=O)[C@@H](NC(=O)[C@H](CC(C)C)NC(=O)[C@]1(C)CCCC=CCCC[C@](C)(NC(=O)[C@H](CCC(=O)O)NC(=O)[C@H](C)NC(=O)[C@@H](NC(=O)[C@H](Cc2ccccc2)NC(C)=O)[C@@H](C)CC)C(=O)N[C@@H](C(C)C)C(=O)N[C@@H](CC(C)C)C(=O)N[C@@H](CCCC)C(=O)N1)C(C)C)[C@@H](C)CC)C(=O)N[C@@H](C)C(=O)N[C@@H](CC(C)C)C(=O)N[C@@H](CC(=O)O)C(=O)N[C@@H](C)C(=O)N[C@H](C(N)=O)[C@@H](C)CC` [SP-121] (Ac-FIAE[S5]VL[Nle][S5]LVIA[Nle]ALDAI-NH2; staple 5-9), the 50% inhibitory concentration (IC50) in assay [1] was 400 to 700 nM. Besides, the concentration giving a half-maximal response (EC50) in the assay on HRE-bla ME-180 cells is more than 30 µM.
